From patent publication US20220402862A1 (Intellia Therapeutics, Inc., priority 2019, published 2022)

Assays:
mouse TTR gene = assay: In vivo editing in mouse liver, sgRNA targeting TTR (G282 or G502), % indel by NGS; set-up: species or system CD-1 female mice
Summary of the method: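 Female CD-1 mice, 6–10 weeks, given a single i.v. tail-vein dose of LNPs carrying Cas9 mRNA plus TTR sgRNA (G282 or G502), at several dose levels. Liver collected at 6 or 7 days; percent indels = reads with insertions or deletions over total reads, by amplicon NGS.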

TTR rat gene = assay: In vivo editing in rat liver, sgRNA targeting TTR (G534), % indel by NGS; set-up: species or system Sprague Dawley female rats; conditions: G534 sgRNA + Cas9 mRNA LNP, Experiment 109
Procedure: Sprague Dawley female rats ranging from 6-7 weeks of age were used in each study. Each animal was weighed and dosing solutions were prepared based on body weight. LNPs were dosed via the lateral tail vein in a volume of 0.35 mL per animal (approximately 2 mL per kilogram body weight). The animals were periodically observed for adverse effects for at least 24 hours post dose.
For studies measuring in vivo editing in liver, animals were dosed at 0.1 mg/kg or 0.3 mg/kg. Animals were euthanized by CO2 asphyxiation 6 days post dose. At necropsy, the liver was collected for editing analysis by NGS and blood was collected into serum separator tubes for serum TTR measurement.
(§1) In brief, to quantitatively determine the efficiency of editing at the target location in the genome, genomic DNA was isolated and deep sequencing was utilized to identify the presence of insertions and deletions introduced by gene editing.
(§2) PCR primers were designed around the target site (e.g., within B2M), and the genomic area of interest was amplified. Additional PCR was performed according to the manufacturer's protocols (Illumina) to add the necessary chemistry for sequencing. The amplicons were sequenced on an Illumina MiSeq instrument. The reads were aligned to the mouse or rat reference genome (e.g., GRCm38) after eliminating those having low quality scores. The resulting files containing the reads were mapped to the reference genome (BAM files), where reads that overlapped the target region of interest were selected and the number of wild type reads versus the number of reads which contain an insertion, substitution, or deletion was calculated.
(§3) The editing percentage (e.g., the “indel efficiency” or “percent indels”) was defined as the total number of sequence reads with insertions or deletions over the total number of sequence reads, including wild type.
In vivo delivery in a rat model was assessed by measuring editing efficiency for materials delivered with formulations including various amine lipid compounds. Cas9 mRNA (SEQ ID NO: 6) was formulated as LNPs with an sgRNA targetting the TTR rat gene (G534, SEQ ID NO: 5). LNPs were formulated and characterized as described in Example 123. Analysis of average particle size, polydispersity (PDI), total RNA content and encapsulation efficiency of RNA are shown in Table 10.
Sprague Dawley female rats were dosed i.v. at 0.1 or 0.3 mg/kg and assessed for editing in liver.

mouse B2M gene [1] = assay: In vivo editing in mouse liver, sgRNA targeting B2M (G650), % indel by NGS; set-up: species or system CD-1 female mice; conditions: for Editing Mean % Indel: mouse liver, guide G650, Experiment 104; for Liver editing (%): mouse, experiment 108
Procedure: CD-1 female mice ranging from 6-10 weeks of age were used in each study. Animals were weighed and grouped according to body weight for preparing dosing solutions based on group average weight. LNPs were dosed via the lateral tail vein in a volume of 0.2 mL per animal (approximately 10 mL per kilogram body weight). The animals were periodically observed for adverse effects for at least 24 hours post dose. For studies measuring in vivo editing in liver, CD-1 female mice were dosed at 0.1 mg/kg unless otherwise noted. Animals were euthanized at 6 or 7 days by ex sanguination via cardiac puncture under isoflurane anesthesia. Liver tissue was collected from each animal for DNA extraction and analysis. Blood was collected into serum separator tubes or into tubes containing buffered sodium citrate for plasma as described herein. Cohorts of mice were measured for editing by Next-Generation Sequencing (NGS).
as §1, §2, §3
We assessed in vivo editing efficiency for materials delivered with formulations including various amine lipid compounds. Editing was measured using either G282 (SEQ ID No: 1) which targets the mouse TTR gene or G650 (SEQ ID No. 2) which targets the mouse B2M gene. Lipids described above were assessed for efficacy through in vivo editing experiments. LNPs were formulated at a 1:1 or 1:1.3 w/w ratio of sgRNA to Cas9 mRNA, and at an N/P ratio of about 6. Molar concentrations of lipids in the lipid component of the LNPs are used at mol % amine lipid/DSPC/cholesterol/PEG-2k-DMG of 50/9/38/3. The final LNPs were characterized to determine the encapsulation efficiency, polydispersity index, and average particle size according to the analytical methods provided above. Analysis of average particle size, polydispersity (PDI), total RNA content and encapsulation efficiency of RNA are shown in Table 2.
Alternatively, Cas9 mRNA of Example 120 was formulated as LNPs with an sgRNA targeting B2M (G650, SEQ ID NO: 2) These LNPs were formulated at a w/w ratio of a sgRNA and Cas9 mRNA as indicated in Table 4. The LNPs were formulated using the cross flow procedure with lipid molar compositions of mol % amine lipid/DSPC/cholesterol/PEG-2k-DMG of 50/9/38/3 and an N/P ratio of 6.0. […]
(§4) CD-1 female mice were dosed i.v. at 0.1, 0.3, or 1 mg/kg and assessed for editing in liver, spleen, and bone marrow.

mouse B2M gene [2] = assay: In vivo editing in mouse spleen, G650 sgRNA, % indel by NGS; set-up: species or system CD-1 female mice; conditions: experiment 108
Procedure: as §1, §2, §3
The in vivo delivery to liver, spleen, and bone marrow was assessed by measuring editing efficiency for materials delivered with formulations including various amine lipid compounds. […] LNPs were formulated at a 1:2 w/w ratio of sgRNA to Cas9 mRNA and at an N/P ratio of about 6. Molar concentrations of lipids in the lipid component of the LNPs are used at mol % amine lipid/DSPC/cholesterol/PEG-2k-DMG of 50/9/38/3. The final LNPs compositions were characterized and analyzed as described in Example 120. Analysis of average particle size, polydispersity (PDI), total RNA content and encapsulation efficiency of RNA are shown in Table 8.
as §4

[3] = LNP i.v. 0.03 mg/kg, guide G502, Experiment 105
[4] = LNP i.v. 0.1 mg/kg, guide G502, Experiment 105
[5] = LNP i.v. 0.1 mg/kg, guide G282, Experiments 101-103
[6] = LNP i.v. 0.3 mg/kg, guide G282, Experiments 101-103

Structure (SMILES) | Editing Mean % Indel (mouse TTR gene; [3]) [%] | Editing Mean % Indel (mouse TTR gene; [4]) [%] | Editing Mean % Indel (TTR rat gene; i.v. 0.1 mg/kg) [%] | Editing Mean % Indel (TTR rat gene; i.v. 0.3 mg/kg) [%] | Editing Mean % Indel (mouse B2M gene [1]; LNP i.v. 0.1 mg/kg) [%] | Editing Mean % Indel (mouse B2M gene [1]; LNP i.v. 0.3 mg/kg) [%] | Liver editing (%) (mouse B2M gene [1]; G650, i.v. dose 0.1 mg/kg) | Liver editing (%) (mouse B2M gene [1]; G650, i.v. dose 0.3 mg/kg) | Liver editing (%) (mouse B2M gene [1]; G650, i.v. dose 1 mg/kg) | % Editing in Spleen (mouse B2M gene [2]; G650, i.v. dose 0.1 mg/kg) [%] | % Editing in Spleen (mouse B2M gene [2]; G650, i.v. dose 0.3 mg/kg) [%] | % Editing in Spleen (mouse B2M gene [2]; G650, i.v. dose 1 mg/kg) [%] | Editing Mean % Indel (mouse TTR gene; [5]) [%] | Editing Mean % Indel (mouse TTR gene; [6]) [%]
CCCCC/C=C\C/C=C\CCCCCCCC(=O)OCC(COC(=O)CCC(OCCCCCCCC)OCCCCCCCC)COC(=O)OCCCN(CC)CC (stereo not shown) [Compound 1, 3-((4,4-bis(octyloxy)butanoyl)oxy)-2-((((3-(diethylamino)propoxy)carbonyl)oxy)methyl)propyl (9Z,12Z)-octadeca-9,12-dienoate, reference compound] | 9.24 | 47.62 | 21.1 | 61.3 | 17.8 | 50.3 | 23.74 | 58.48 | 73.6 | 0.62 | 2.2 | 6.26 |  | 
CCCCC/C=C\C/C=C\CCCCCCCC(=O)OCC(COC(=O)CCC(OCCCCCCCC)OCCCCCCCC)COC(=O)NCC1CCCN1CC (stereo not shown) [Compound 40, 3-((4,4-bis(octyloxy)butanoyl)oxy)-2-(((((1-ethylpyrrolidin-2-yl)methyl)carbamoyl)oxy)methyl)propyl (9Z,12Z)-octadeca-9,12-dienoate] |  |  |  |  |  |  |  |  |  |  |  |  | 30.2 | 68.0
CCCCC/C=C\C/C=C\CCCCCCCC(=O)OCC(COC(=O)CCC(OCCCCCCCC)OCCCCCCCC)COC(=O)OCC1CCCN(C)C1 (stereo not shown) [Compound 53, 3-((4,4-bis(octyloxy)butanoyl)oxy)-2-(((((1-methylpiperidin-3-yl)methoxy)carbonyl)oxy)methyl)propyl (9Z,12Z)-octadeca-9,12-dienoate] |  |  |  |  |  |  |  |  |  |  |  |  | 8.6 | 48.2
CCCCCCCCCCOC(=O)CCCCCCCC(=O)OCC(COC(=O)CCC(OCCCCCCCC)OCCCCCCCC)COC(=O)OCCCN(CC)CC (stereo not shown) [Compound 59, 1-(3-((4,4-bis(octyloxy)butanoyl)oxy)-2-((((3-(diethylamino)propoxy)carbonyl)oxy)methyl)propyl) 9-decyl nonanedioate] | 11.8 | 35.64 | 12.4 | 46.2 | 21.2 | 51.6 |  |  |  |  |  |  | 32.4 | 63.9
CCCCCCCCCC(C)OC(=O)CCCCCCCC(=O)OCC(COC(=O)CCC(OCCCCCCCC)OCCCCCCCC)COC(=O)OCCCN(CC)CC (stereo not shown) [Compound 94, 1-(344,4-bis(octyloxy)butanoyl)oxy)-2-((((3-(diethylamino)propoxy)carbonyl)oxy)methyl)propyl) 9-(undecan-2-yl) nonanedioate] | 19.76 | 43.52 | 31.7 | 60.0 |  |  |  |  |  |  |  |  |  | 
CCCCC/C=C\C/C=C\CCCCCCCC(=O)OCC(COC(=O)CC12CC3CC(CC(C3)C1)C2)COC(=O)OCCCN(CC)CC (stereo not shown) [Compound 107, 3-(2-((3 r,5 r, 7r)-adamantan-1-yl)acetoxy)-2-((((3-(diethylamino)propoxy)carbonyl)oxy)methyl)propyl (9Z,12Z)-octadeca-9,12-dienoate] |  |  |  |  |  |  | 0.52 | 1.04 | 5.92 | 0.08 | 0.12 | 0.3 |  | 
